Test results reported in PMC9569420 (Communications Biology, 2022).
pIC50: −log10 of the molar value.

How the values were obtained:
[1] = target: T1, CDK4/cyclin D3 (Homo sapiens, UniProt P11802); experiment: HotSpot kinase assay; format: biochemical; details: read-out: % Enzyme Activity (relative to DMSO controls)
T1 construct: purchased Reaction Biology Corporation

[2] = target: T2, FYN (Homo sapiens, UniProt P06241); experiment: HotSpot kinase assay; format: biochemical; details: read-out: % Enzyme Activity (relative to DMSO controls)
T2 construct: purchased Reaction Biology Corporation

[3] = target: T3, mTOR/FRAP1 (Homo sapiens, UniProt P42345); experiment: HotSpot kinase assay; format: biochemical; details: read-out: % Enzyme Activity (relative to DMSO controls)
T3 construct: purchased Reaction Biology Corporation

[4] = system: HaCat cells; experiment: cell proliferation and viability, ~50% confluence; details: 0.1–100 μM, 24 and 72 h; except 72 h at 100 μM
[5] = target: T4, GRK4 (Homo sapiens, UniProt P32298); experiment: HotSpot kinase assay; format: biochemical; details: read-out: % Enzyme Activity (relative to DMSO controls)
T4 construct: purchased Reaction Biology Corporation

[6] = target: T5, EIF2AK4 (Homo sapiens, UniProt Q9P2K8); experiment: HotSpot kinase assay; format: biochemical; details: read-out: % Enzyme Activity (relative to DMSO controls)
T5 construct: purchased Reaction Biology Corporation

[7] = target: T6, MSSK1/STK23 (Homo sapiens, UniProt Q9UPE1); experiment: HotSpot kinase assay; format: biochemical; details: read-out: % Enzyme Activity (relative to DMSO controls)
T6 construct: purchased Reaction Biology Corporation

[8] = target: T7, PLK3 (Homo sapiens, UniProt Q9H4B4); experiment: HotSpot kinase assay; format: biochemical; details: read-out: % Enzyme Activity (relative to DMSO controls)
T7 construct: purchased Reaction Biology Corporation

[9] = target: T8, MELK (Homo sapiens, UniProt Q14680); experiment: HotSpot kinase assay; format: biochemical; details: read-out: % Enzyme Activity (relative to DMSO controls)
T8 construct: purchased Reaction Biology Corporation

[10] = target: T9, LCK (Homo sapiens, UniProt P06239); experiment: HotSpot kinase assay; format: biochemical; details: read-out: % Enzyme Activity (relative to DMSO controls)
T9 construct: purchased Reaction Biology Corporation

[11] = target: T10, MYO3b (Homo sapiens, UniProt Q8WXR4); experiment: HotSpot kinase assay; format: biochemical; details: read-out: % Enzyme Activity (relative to DMSO controls)
T10 construct: purchased Reaction Biology Corporation
T10 sequence (Q8WXR4 whole entry): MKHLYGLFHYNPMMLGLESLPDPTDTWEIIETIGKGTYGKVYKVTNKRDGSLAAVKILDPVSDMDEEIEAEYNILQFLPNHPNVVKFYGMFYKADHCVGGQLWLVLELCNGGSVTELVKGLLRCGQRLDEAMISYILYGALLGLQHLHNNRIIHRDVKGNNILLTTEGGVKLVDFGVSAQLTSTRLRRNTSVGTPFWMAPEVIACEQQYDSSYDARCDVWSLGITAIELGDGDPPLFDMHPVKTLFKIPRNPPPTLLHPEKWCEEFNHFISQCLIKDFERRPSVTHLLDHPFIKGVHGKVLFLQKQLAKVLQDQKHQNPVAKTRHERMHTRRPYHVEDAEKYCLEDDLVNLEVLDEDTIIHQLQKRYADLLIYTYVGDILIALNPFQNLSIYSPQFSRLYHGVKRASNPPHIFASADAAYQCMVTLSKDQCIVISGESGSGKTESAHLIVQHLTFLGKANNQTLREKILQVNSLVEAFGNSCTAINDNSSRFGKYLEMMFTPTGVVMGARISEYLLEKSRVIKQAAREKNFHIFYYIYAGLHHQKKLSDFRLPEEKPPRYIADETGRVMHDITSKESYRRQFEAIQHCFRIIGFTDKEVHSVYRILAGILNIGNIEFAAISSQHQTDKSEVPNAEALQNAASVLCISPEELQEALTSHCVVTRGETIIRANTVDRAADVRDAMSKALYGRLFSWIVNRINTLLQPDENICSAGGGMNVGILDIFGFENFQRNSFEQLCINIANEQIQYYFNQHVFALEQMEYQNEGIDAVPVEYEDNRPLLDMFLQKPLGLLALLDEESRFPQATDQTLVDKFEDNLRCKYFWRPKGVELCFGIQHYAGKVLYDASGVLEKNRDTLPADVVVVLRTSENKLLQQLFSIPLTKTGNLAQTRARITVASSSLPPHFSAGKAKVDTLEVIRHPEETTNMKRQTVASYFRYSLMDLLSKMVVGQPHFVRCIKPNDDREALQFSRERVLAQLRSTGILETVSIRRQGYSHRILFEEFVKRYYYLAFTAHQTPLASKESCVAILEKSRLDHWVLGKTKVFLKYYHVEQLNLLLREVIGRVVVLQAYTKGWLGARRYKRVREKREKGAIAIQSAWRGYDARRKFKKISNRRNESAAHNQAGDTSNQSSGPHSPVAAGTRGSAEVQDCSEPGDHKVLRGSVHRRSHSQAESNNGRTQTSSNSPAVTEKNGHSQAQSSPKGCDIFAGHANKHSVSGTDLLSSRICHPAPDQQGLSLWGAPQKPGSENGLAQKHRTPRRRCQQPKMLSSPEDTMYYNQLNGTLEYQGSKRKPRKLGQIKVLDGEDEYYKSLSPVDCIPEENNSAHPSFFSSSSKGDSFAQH

[12] = target: T11, PDK1/PDPK1 (Homo sapiens, UniProt O15530); experiment: biochemical
T11 construct: purchased Reaction Biology Corporation
T11 sequence (O15530 1-556): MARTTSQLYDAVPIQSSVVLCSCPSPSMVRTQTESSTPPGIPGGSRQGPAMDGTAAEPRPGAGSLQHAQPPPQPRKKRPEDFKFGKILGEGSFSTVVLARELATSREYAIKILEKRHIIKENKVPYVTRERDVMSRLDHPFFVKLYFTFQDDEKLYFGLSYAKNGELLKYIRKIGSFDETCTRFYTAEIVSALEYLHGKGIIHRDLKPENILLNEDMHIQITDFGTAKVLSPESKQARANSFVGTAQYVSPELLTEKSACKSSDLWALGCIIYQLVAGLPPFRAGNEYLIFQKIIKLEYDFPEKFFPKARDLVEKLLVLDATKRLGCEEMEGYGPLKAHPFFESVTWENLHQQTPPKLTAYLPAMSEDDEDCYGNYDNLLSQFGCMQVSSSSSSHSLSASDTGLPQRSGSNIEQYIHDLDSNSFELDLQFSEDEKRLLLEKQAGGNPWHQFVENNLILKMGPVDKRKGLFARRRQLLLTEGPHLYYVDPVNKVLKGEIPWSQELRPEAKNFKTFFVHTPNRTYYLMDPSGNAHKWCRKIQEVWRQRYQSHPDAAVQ

[13] = target: T12, PLK2 (Homo sapiens, UniProt Q9NYY3); experiment: HotSpot kinase assay; format: biochemical; details: read-out: % Enzyme Activity (relative to DMSO controls)
T12 construct: purchased Reaction Biology Corporation

[14] = target: T13, TIE2/TEK (Homo sapiens, UniProt Q02763); experiment: HotSpot kinase assay; format: biochemical; details: read-out: % Enzyme Activity (relative to DMSO controls)
T13 construct: purchased Reaction Biology Corporation

[15] = target: T14, ULK1 (Homo sapiens, UniProt O75385); experiment: biochemical; details: read-out: % Enzyme Activity (relative to DMSO controls)
T14 construct: purchased Reaction Biology Corporation

[16] = target: T15, KSR1 (Homo sapiens, UniProt Q8IVT5); experiment: biochemical; details: read-out: % Enzyme Activity (relative to DMSO controls)
T15 construct: purchased Reaction Biology Corporation

[17] = target: T16, MLCK2/MYLK2 (Homo sapiens, UniProt Q9H1R3); experiment: HotSpot kinase assay; format: biochemical; details: read-out: % Enzyme Activity (relative to DMSO controls)
T16 construct: purchased Reaction Biology Corporation

[18] = target: T17, P38d/MAPK13 (Homo sapiens, UniProt O15264); experiment: HotSpot kinase assay; format: biochemical; details: read-out: % Enzyme Activity (relative to DMSO controls)
T17 construct: purchased Reaction Biology Corporation

[19] = target: T18, EPHA1 (Homo sapiens, UniProt P21709); experiment: HotSpot kinase assay; format: biochemical; details: read-out: % Enzyme Activity (relative to DMSO controls)
T18 construct: purchased Reaction Biology Corporation

[20] = target: T19, DMPK2 (Homo sapiens, UniProt Q6DT37); experiment: HotSpot kinase assay; format: biochemical; details: read-out: % Enzyme Activity (relative to DMSO controls)
T19 construct: purchased Reaction Biology Corporation

[21] = target: T20, CAMKK2 (Homo sapiens, UniProt Q96RR4); experiment: HotSpot kinase assay; format: biochemical; details: read-out: % Enzyme Activity (relative to DMSO controls)
T20 construct: purchased Reaction Biology Corporation

[22] = target: T21, RSK1 (Homo sapiens, UniProt Q15418); experiment: HotSpot kinase assay; format: biochemical; details: read-out: % Enzyme Activity (relative to DMSO controls)
T21 construct: purchased Reaction Biology Corporation

[23] = target: T22, STK38/NDR1 (Homo sapiens, UniProt Q15208); experiment: HotSpot kinase assay; format: biochemical; details: read-out: % Enzyme Activity (relative to DMSO controls)
T22 construct: purchased Reaction Biology Corporation

[24] = target: T23, ARK5/NUAK1 (Homo sapiens, UniProt O60285); experiment: HotSpot kinase assay; format: biochemical; details: read-out: % Enzyme Activity (relative to DMSO controls)
T23 construct: purchased Reaction Biology Corporation
T23 sequence (O60285 whole entry): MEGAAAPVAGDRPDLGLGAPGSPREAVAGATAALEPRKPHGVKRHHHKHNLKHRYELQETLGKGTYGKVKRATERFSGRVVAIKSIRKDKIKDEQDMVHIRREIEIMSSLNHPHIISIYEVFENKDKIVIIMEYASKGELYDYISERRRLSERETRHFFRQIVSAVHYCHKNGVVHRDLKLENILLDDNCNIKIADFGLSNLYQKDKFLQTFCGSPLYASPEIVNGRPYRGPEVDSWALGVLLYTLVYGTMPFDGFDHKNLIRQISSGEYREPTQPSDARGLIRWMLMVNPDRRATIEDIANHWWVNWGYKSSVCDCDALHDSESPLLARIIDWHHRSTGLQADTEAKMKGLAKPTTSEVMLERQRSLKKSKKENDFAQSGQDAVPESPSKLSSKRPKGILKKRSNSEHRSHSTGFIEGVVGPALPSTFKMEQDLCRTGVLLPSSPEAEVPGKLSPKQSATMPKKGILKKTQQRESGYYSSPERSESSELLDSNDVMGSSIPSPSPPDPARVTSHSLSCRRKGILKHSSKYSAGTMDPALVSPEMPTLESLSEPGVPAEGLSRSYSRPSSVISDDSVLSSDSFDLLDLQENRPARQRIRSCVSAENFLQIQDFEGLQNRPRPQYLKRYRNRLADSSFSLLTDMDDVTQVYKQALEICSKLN

[25] = target: T24, TNIK (Homo sapiens, UniProt Q9UKE5); experiment: HotSpot kinase assay; format: biochemical; details: read-out: % Enzyme Activity (relative to DMSO controls)
T24 construct: purchased Reaction Biology Corporation

[26] = target: T25, LYN B (Homo sapiens, UniProt P07948); experiment: HotSpot kinase assay; format: biochemical; details: read-out: % Enzyme Activity (relative to DMSO controls)
T25 construct: purchased Reaction Biology Corporation

[27] = target: T26, CDK2/CYCLIN E (Homo sapiens, UniProt P24941); experiment: HotSpot kinase assay; format: biochemical; details: read-out: % Enzyme Activity (relative to DMSO controls)
T26 construct: purchased Reaction Biology Corporation

[28] = target: T27, TYRO3/SKY (Homo sapiens, UniProt Q06418); experiment: HotSpot kinase assay; format: biochemical; details: read-out: % Enzyme Activity (relative to DMSO controls)
T27 construct: purchased Reaction Biology Corporation
T27 sequence (Q06418 41-890): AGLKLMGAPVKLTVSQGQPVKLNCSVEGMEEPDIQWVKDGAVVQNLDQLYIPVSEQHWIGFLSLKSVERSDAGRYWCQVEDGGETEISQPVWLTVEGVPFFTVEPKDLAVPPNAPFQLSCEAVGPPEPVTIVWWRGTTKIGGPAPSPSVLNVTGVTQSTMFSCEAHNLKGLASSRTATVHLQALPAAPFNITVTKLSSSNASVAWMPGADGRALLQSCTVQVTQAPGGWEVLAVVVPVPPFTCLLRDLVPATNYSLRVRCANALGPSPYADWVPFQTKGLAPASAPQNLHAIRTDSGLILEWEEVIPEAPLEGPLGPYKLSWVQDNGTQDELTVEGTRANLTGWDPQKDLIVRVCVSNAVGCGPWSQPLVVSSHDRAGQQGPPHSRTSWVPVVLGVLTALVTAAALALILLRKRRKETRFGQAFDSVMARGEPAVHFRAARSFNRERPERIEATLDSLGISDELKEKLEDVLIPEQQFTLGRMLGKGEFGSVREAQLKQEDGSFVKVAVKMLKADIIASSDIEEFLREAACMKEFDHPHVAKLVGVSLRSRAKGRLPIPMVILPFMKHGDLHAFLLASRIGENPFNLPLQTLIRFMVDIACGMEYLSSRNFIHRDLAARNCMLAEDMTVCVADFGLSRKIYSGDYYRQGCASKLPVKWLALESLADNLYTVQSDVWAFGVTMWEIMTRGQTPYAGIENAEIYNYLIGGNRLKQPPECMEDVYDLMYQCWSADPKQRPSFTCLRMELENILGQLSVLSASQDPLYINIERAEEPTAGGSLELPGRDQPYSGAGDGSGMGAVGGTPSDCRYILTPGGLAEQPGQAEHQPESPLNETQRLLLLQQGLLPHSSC

[29] = target: T28, MYLK3 (Homo sapiens, UniProt Q32MK0); experiment: HotSpot kinase assay; format: biochemical; details: read-out: % Enzyme Activity (relative to DMSO controls)
T28 construct: purchased Reaction Biology Corporation
T28 sequence (Q32MK0 whole entry): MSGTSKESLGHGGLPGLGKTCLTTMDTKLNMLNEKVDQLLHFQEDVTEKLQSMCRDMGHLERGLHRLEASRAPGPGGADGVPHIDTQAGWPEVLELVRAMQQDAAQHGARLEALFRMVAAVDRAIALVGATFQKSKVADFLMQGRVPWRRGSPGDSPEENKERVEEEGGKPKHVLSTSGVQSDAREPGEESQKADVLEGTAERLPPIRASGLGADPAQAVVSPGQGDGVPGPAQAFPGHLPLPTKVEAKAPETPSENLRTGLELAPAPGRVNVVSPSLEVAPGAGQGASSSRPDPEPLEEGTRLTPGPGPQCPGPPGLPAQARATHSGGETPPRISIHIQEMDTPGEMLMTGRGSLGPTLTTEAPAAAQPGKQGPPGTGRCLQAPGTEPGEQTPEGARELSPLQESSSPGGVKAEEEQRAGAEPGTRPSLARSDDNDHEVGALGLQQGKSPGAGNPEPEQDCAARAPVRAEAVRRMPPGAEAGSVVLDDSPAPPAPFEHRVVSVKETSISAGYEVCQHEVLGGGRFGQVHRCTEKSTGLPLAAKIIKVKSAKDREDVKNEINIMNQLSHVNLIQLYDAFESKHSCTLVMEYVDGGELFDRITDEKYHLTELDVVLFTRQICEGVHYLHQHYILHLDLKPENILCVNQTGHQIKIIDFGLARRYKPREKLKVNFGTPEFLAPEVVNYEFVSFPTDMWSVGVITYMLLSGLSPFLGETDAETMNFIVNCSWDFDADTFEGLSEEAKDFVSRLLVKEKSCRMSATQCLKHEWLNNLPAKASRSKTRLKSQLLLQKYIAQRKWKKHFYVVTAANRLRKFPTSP

[30] = target: T29, WNK2 (Homo sapiens, UniProt Q9Y3S1); experiment: HotSpot kinase assay; format: biochemical; details: read-out: % Enzyme Activity (relative to DMSO controls)
T29 construct: purchased Reaction Biology Corporation

[31] = target: T30, MARK1 (Homo sapiens, UniProt Q9P0L2); experiment: HotSpot kinase assay; format: biochemical; details: read-out: % Enzyme Activity (relative to DMSO controls)
T30 construct: purchased Reaction Biology Corporation
T30 sequence (Q9P0L2 whole entry): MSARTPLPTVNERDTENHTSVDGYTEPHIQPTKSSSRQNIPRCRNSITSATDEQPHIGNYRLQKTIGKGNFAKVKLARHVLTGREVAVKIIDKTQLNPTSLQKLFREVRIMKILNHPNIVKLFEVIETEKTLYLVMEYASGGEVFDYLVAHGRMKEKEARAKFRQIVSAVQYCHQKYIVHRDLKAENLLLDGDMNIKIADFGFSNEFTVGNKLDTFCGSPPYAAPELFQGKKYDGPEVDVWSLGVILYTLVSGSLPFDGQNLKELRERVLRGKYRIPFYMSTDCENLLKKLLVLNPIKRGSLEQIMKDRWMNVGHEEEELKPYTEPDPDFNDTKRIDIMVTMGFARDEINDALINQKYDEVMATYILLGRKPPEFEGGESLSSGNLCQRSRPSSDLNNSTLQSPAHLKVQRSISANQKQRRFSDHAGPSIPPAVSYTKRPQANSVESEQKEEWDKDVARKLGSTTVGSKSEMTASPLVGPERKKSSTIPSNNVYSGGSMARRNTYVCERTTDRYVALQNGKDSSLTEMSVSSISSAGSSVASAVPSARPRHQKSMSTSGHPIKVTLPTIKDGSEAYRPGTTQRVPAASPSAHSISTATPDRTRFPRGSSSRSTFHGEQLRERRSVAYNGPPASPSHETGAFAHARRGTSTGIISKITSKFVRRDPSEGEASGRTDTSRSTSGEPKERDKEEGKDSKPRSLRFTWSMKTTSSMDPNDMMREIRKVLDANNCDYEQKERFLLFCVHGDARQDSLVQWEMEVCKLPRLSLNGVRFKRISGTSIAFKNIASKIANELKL

[32] = target: T31, SRPK1 (Homo sapiens, UniProt Q96SB4); experiment: HotSpot kinase assay; format: biochemical; details: read-out: % Enzyme Activity (relative to DMSO controls)
T31 construct: purchased Reaction Biology Corporation

[33] = target: T32, TESK2 (Homo sapiens, UniProt Q96S53); experiment: HotSpot kinase assay; format: biochemical; details: read-out: % Enzyme Activity (relative to DMSO controls)
T32 construct: purchased Reaction Biology Corporation
T32 sequence (Q96S53 whole entry): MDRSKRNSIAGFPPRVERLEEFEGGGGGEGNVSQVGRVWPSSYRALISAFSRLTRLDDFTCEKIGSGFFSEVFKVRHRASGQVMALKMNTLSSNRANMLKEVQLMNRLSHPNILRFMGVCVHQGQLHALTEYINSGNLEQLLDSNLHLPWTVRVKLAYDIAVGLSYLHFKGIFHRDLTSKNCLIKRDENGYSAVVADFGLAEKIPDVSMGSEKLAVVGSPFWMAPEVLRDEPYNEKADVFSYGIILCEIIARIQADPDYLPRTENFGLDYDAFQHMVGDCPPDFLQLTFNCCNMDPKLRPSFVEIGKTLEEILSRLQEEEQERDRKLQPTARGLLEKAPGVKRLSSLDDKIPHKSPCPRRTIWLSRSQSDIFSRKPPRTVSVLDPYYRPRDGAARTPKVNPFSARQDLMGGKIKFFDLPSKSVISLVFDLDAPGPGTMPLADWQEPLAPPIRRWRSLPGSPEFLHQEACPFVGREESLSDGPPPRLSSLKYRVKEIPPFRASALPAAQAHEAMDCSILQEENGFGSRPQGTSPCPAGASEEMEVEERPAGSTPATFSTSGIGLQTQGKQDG

[34] = target: T33, LIMK2 (Homo sapiens, UniProt P53671); experiment: HotSpot kinase assay; format: biochemical; details: read-out: % Enzyme Activity (relative to DMSO controls)
T33 construct: purchased Reaction Biology Corporation

[35] = target: T34, IKKb/IKBKB (Homo sapiens, UniProt O14920); experiment: HotSpot kinase assay; format: biochemical; details: read-out: % Enzyme Activity (relative to DMSO controls)
T34 construct: purchased Reaction Biology Corporation

## CO[C@@H]1[C@H](N(C)C(=O)CCC(=O)NCc2cn(CCCS(=O)(=O)O)nn2)C[C@H]2O[C@]1(C)n1c3ccccc3c3c4c(c5c6ccccc6n2c5c31)C(=O)NC4 [CIMSS]
[1]
  remaining activity at 10 µM: 85.6%
[2]
  remaining activity at 10 µM: 2.59%
[3]
  remaining activity at 10 µM: 112%
[4]
  inhibition of cell growth: no significant inhibition
[5]
  remaining activity at 10 µM: 19.8%
[6]
  remaining activity at 10 µM: 9.5%
[7]
  remaining activity at 10 µM: 67.7%
[8]
  remaining activity at 10 µM: 98.2%
[9]
  remaining activity at 10 µM: 1.43%
[10]
  remaining activity at 10 µM: 3.41%
[11]
  remaining activity at 10 µM: 4.81%
[12]; Supplementary Table 1, PDPK1, read-out: IC50 (Molar concentration)
  pIC50: 9.56
[12]; read-out: % Enzyme Activity (relative to DMSO controls), 10µM
  remaining activity at 10 µM: 4.24%
[12]; read-out: inhibition of PDPK1
  inhibition at 10 µM: > 75%
[13]
  remaining activity at 10 µM: 27.4%
[14]
  remaining activity at 10 µM: 7.56%
[15]
  remaining activity at 10 µM: 13.6%
[16]
  remaining activity at 10 µM: 90.8%
[17]
  remaining activity at 10 µM: 27.3%
[18]
  remaining activity at 10 µM: 74.7%
[19]
  remaining activity at 10 µM: 31.5%
[20]
  remaining activity at 10 µM: 10.9%
[21]
  remaining activity at 10 µM: 1.86%
[22]
  remaining activity at 10 µM: 3.27%
[23]
  remaining activity at 10 µM: 8.29%
[24]
  remaining activity at 10 µM: 1.83%
[25]
  remaining activity at 10 µM: 1.22%
[26]
  remaining activity at 10 µM: 2.95%
[27]
  remaining activity at 10 µM: 7.89%
[28]
  remaining activity at 10 µM: 23.6%
[29]
  remaining activity at 10 µM: 67.6%
[30]
  remaining activity at 10 µM: 71.9%
[31]
  remaining activity at 10 µM: 1.18%
[32]
  remaining activity at 10 µM: 9.17%
[33]
  remaining activity at 10 µM: 91.2%
[34]
  remaining activity at 10 µM: 67.4%
[35]
  remaining activity at 10 µM: 33.4%
